Like-named read-outs stand apart in the source and are kept apart here.
Experiments:
[1] = test system: mouse myocardial I/R injury; test: neutrophil recruitment in mouse myocardial I/R injury (multi-photon microscopy, flow cytometry); assay type: in vivo; conditions: I/R 35/60 minutes
Source text: C57BL/6J wild-type mice (000664; JAX) were originally obtained from the Jackson Laboratory. LysM-EGFP or Lyz2-EGFP mice were originally obtained from Albert Einstein College of Medicine through a material transfer agreement. Mice were fed a standard rodent chow diet and were housed in microisolator cages in a pathogen-free facility in the Center for Comparative Medicine at UConn Health. All experiments followed the UConn Health Institutional Animal Care and Use Committee (IACUC) guidelines, and approval for the use of rodents was obtained from the UConn Health IACUC according to criteria outlined in the Guide for the Care and Use of Laboratory Animals from the National Institutes of Health. Both male and female mice aged from 12 to 16 weeks were used in the experiments.
Mice were subjected to 35 minutes of myocardial ischemia and 1 (for multi-photon microscopy and flow cytometry) or 22-26 (for TTC-phthalo-blue staining) hours of reperfusion. […] Briefly, anesthesia was induced with an intraperitoneal injection of ketamine hydrochloride (125 mg·kg^−1) and xylazine (12.5 mg·kg^−1). Mice were intubated with 24G×3/4″ Surflo i.v. catheter and ventilated using MiniVent 845 (Harvard Apparatus).
Surgeries were performed under an SMZ168 Stereo Zoom microscope (Motic). Ischemia was achieved by ligating the left anterior descending coronary artery (LAD) using a 6-0 silk suture with a section of PE-10 tubing placed over the LAD, 1 mm from the tip of the normally positioned left atrium. One important problem in drug administration is water solubility, which greatly affects drug absorption and bioavailability. […] In clinics, the primary percutaneous coronary intervention aims to be performed less than 90 min (within 60 min is preferable) after the patient arrives. […] After occlusion for 35 minutes, reperfusion was initiated by releasing the ligature and removing the PE-10 tubing. The chest wall was closed, the animal extubated, and body temperature was maintained by use of a 37° C. warm pad. Hearts were harvested 1 or 22-26 hours later. The loosened suture was left in place and then retied for the purpose of evaluating the ischemic area. Sham control and no drug administered control were performed as well.
To assess the neutrophil recruitment in myocardial I/R injury, LysM-EGFP mice underwent 35 minutes of ischemia and 1 hour of reperfusion. […] After being fixed with 1% PFA and washes with ice-cold PBS, cell fluorescence was assessed with an LSRII (BD Biosciences, San Jose, CA) and analyzed with FlowJo software (version 10.6). […]

[2] = test system: β2 integrins on human neutrophils; test: flow cytometry of β2 integrin activation and exocytosis (mAb24, KIM127, TS1/18) after IL-8; assay type: cell-based; conditions: for inhibition at 10 µM: Homo sapiens, Neutrophil
Procedure: To monitor the dynamics of β2 integrin activation, 400 μL of 2.5×10^5 cells·mL^−1 neutrophils were assessed by an LSRII analyzer (BD Biosciences, San Jose, CA) for 10 s. After adding 0.5 μg·mL^−1 AF488-conjugated mAb24 and DL550-conjugated KIM127 (final concentration), cells were put back into the analyzer for another 5 minutes. Then, after adding 1 μg·mL^−1 IL-8, cells were put back into the analyzer for another 10 minutes. The curves showing the dynamics of integrin activation (FIGS. 2A, 2B) were generated by FlowJo software (version 10.6). The antibody specificities were validated in our previous study using β2 integrin knockout cells and β2-integrin-activation-deficient talin-1 knockout cells. Compensations were performed before all experiments.
To quantify the percentage of mAb24 and KIM127 epitopes and assess inhibition of β2 integrin exocytosis, pan-CD18 […] TS1/18, which has the same isotype (mouse IgG1) as mAb24 and KIM127, was used. […] Neutrophils were mixed with unconjugated mAb24 (1 μg·mL^−1), KIM127 (1 μg·mL^−1), […] (1 μg·mL^−1), or mouse IgG1 isotype control (1 μg·mL^−1), and incubated with 1 μg·mL^−1 IL-8 at RT for 10 min. After incubation, neutrophils were fixed by 1% PFA at 4° C. for 10 min. After two washes with PBS, cells were incubated with APC-conjugated rat anti-mouse IgG1 secondary mAb (1 μg·mL^−1) at RT for 10 min. After two washes with PBS, cell fluorescence was assessed with an LSRII (BD Biosciences, San Jose, CA) and analyzed with FlowJo software (version 10.6). The quantifications of mAb24, KIM127, TS1/18, and isotype mean fluorescence intensities (MFI) (FIGS. 2C-2E) were analyzed by FlowJo software (version 10.6) and obtained from six replicates. MFI of isotype controls was subtracted as background signal. Since mAb24, KIM127, and TS1/18 are all IgG1 isotypes and we used the same secondary antibody, the percentage of high-affinity and extended β2 integrins (FIGS. 2F and 2G) can be calculated by dividing the MFI of mAb24 and KIM127 by the MFI of TS1/18.

CC(C)(C)C(=O)/C(=C\c1cccc([N+](=O)[O-])c1)n1cncn1 [Nexinhib20, 4,4-dimethyl-1-(3-nitrophenyl)-2-(1H-1,2,4-triazol-1-yl)-1-penten-3-one]
neutrophils retained in the blood circulation compared to vehicle controls ([1]; 1 μmol per mouse i.p.): doubled
percentage of neutrophils in heart leukocytes ([1]; 1 μmol per mouse i.p., vehicle about 50%): about 30%
heart neutrophil counts (CD45^+Ly6G^+) ([1]; 1 μmol per mouse i.p., vehicle about 6000): about 2000
LysM-GFP^+ leukocyte recruitment to the coronary artery (EGFP fluorescence) ([1]; LysM-EGFP mice, 1 μmol per mouse i.p. 30 minutes before reperfusion): significantly limited
β2 integrin exocytosis (total CD18 surface expression, TS1/18) ([2]; 10 μM, RT 1 hour, 10 min 1 μg·mL^−1 IL-8): inhibited significantly
percentage of high-affinity β2 integrins (mAb24 MFI/TS1/18 MFI) ([2]; 10 μM, 10 min after IL-8): reduced the percentage of high-affinity
inhibition at 10 µM ([2]; RT 1 hour, 10 min 1 μg·mL^−1 IL-8, read-out: inhibition of IL-8-induced elevation of KIM127 (extended β2 integrins)): ~20%
inhibition at 10 µM ([2]; RT 1 hour, 10 min 1 μg·mL^−1 IL-8, read-out: inhibition of IL-8-induced elevation of mAb24 (high-affinity β2 integrins)): ~75%
